Test results reported in ChEMBL document CHEMBL4680366, “Tumor-Targeted Bivalent Protein Degradation for Application in Cancer Therapy” (ACS Med Chem Lett, 2021).
The source made the active and inactive calls. The rule behind the calls is not given here.

Legend:
[1] = biological target: Heat shock protein HSP 90-alpha/Bromodomain-containing protein 4 (Homo sapiens) (UniProt P07900+O60885); assay: Protac activity at HSP90/BRD4 in human MV4-11 cells assessed as degradation of BRD4 at 40 to 1000 nM measured after 24 hrs by flow cytometry relative to control; assay type: cell-based; conditions: dose 40-1000 nM
[2] = biological target: Bromodomain-containing protein 4 (Homo sapiens, UniProt O60885); assay: Binding affinity to recombinant human BRD4 BD1 and BD2 expressed in Escherichia coli BL21 incubated for 2 hrs under shaking condition by HTRF assay
MV4-11 = assay: Antitumor activity at human MV4-11 cells xenografted in BALB/c mouse assessed as tumor growth inhibition at 25 to 100 mg/kg, ip administered for 3 to 4 weeks; assay type: functional, organism-based; conditions: dose 25-100 mg/kg, time 3-4 weeks

Activity [1]	IC50 [2]	SMILES	TGI (MV4-11)
> 50%	100 nM	CCc1cc(-c2nnc(O)n2-c2ccc(CN3CCN(CC4CCN(C(=O)C[C@@H]5N=C(c6ccc(Cl)cc6)c6c(sc(C)c6C)-n6c(C)nnc65)CC4)CC3)cc2)c(O)cc1O	–
–	100 nM	CCc1cc(-c2nnc(C(=O)NCC(F)(F)F)n2-c2ccc(CN3CCN(CC4CCN(C(=O)C[C@@H]5N=C(c6ccc(Cl)cc6)c6c(sc(C)c6C)-n6c(C)nnc65)CC4)CC3)cc2)c(O)cc1O	Active
–	100 nM	Cc1sc2c(c1C)C(c1ccc(Cl)cc1)=N[C@@H](CC(=O)N1CCC(CN3CCN(Cc4ccc(-n5c(O)nnc5-c5cc(C(C)C)c(O)cc5O)cc4)CC3)CC1)c1nnc(C)n1-2 [listing 1 of 3 here]	–
–	100 nM	Cc1sc2c(c1C)C(c1ccc(Cl)cc1)=N[C@@H](CC(=O)N1CCC(CN3CCN(Cc4ccc(-n5c(O)nnc5-c5cc(C(C)C)c(O)cc5O)cc4)CC3)CC1)c1nnc(C)n1-2 [listing 2 of 3 here]	–
–	< 100 nM	Cc1sc2c(c1C)C(c1ccc(Cl)cc1)=N[C@@H](CC(=O)N1CCC(CCN3CCC(Cc4ccc(-n5c(O)nnc5-c5cc(C(C)C)c(O)cc5O)cc4)CC3)CC1)c1nnc(C)n1-2	–
–	< 100 nM	Cc1sc2c(c1C)C(c1ccc(Cl)cc1)=N[C@@H](CC(=O)N1CCC(CN3CCN(Cc4ccc(-n5c(O)nnc5-c5ccc(O)cc5O)cc4)CC3)CC1)c1nnc(C)n1-2	–
–	< 100 nM	CCc1cc(-c2nnc(O)n2-c2ccc(CN3CCC(C(=O)N4CCC(CNC(=O)C[C@@H]5N=C(c6ccc(Cl)cc6)c6c(sc(C)c6C)-n6c(C)nnc65)C4)CC3)cc2)c(O)cc1O (stereo not given in full)	–
–	< 100 nM	Cc1sc2c(c1C)C(c1ccc(Cl)cc1)=N[C@@H](CC(=O)N[C@@H](C)c1ccc(CN3CCC(Cc4ccc(-n5c(O)nnc5-c5cc(C(C)C)c(O)cc5O)cc4)CC3)cc1)c1nnc(C)n1-2	–
> 50%	< 100 nM	Cc1sc2c(c1C)C(c1ccc(Cl)cc1)=N[C@@H](CC(=O)NCC(=O)NCC1CCN(C(=O)C3CCN(Cc4ccc(-n5c(O)nnc5-c5cc(C(C)C)c(O)cc5O)cc4)CC3)CC1)c1nnc(C)n1-2	–
–	< 100 nM	Cc1sc2c(c1C)C(c1ccc(Cl)cc1)=N[C@@H](CC(=O)NCCOCCN1CCC(Cc3ccc(-n4c(O)nnc4-c4cc(C(C)C)c(O)cc4O)cc3)CC1)c1nnc(C)n1-2	–
> 50%	–	Cc1sc2c(c1C)C(c1ccc(Cl)cc1)=N[C@@H](CC(=O)N1CCC(CN3CCN(Cc4ccc(-n5c(O)nnc5-c5cc(C(C)C)c(O)cc5O)cc4)CC3)CC1)c1nnc(C)n1-2 [listing 3 of 3 here]	Active
